Laboratory results published in ChEMBL document CHEMBL1909046, “DrugMatrix in vitro pharmacology data”.

What was measured:
Calcitonin receptor = biological target: T1, Calcitonin receptor (Homo sapiens, UniProt P30988); format: cell membranes, Membrane; conditions: t47d; note: in other assays of this panel Not Active means under 50% inhibition at 10 µM
T1 sequence (P30988 whole entry): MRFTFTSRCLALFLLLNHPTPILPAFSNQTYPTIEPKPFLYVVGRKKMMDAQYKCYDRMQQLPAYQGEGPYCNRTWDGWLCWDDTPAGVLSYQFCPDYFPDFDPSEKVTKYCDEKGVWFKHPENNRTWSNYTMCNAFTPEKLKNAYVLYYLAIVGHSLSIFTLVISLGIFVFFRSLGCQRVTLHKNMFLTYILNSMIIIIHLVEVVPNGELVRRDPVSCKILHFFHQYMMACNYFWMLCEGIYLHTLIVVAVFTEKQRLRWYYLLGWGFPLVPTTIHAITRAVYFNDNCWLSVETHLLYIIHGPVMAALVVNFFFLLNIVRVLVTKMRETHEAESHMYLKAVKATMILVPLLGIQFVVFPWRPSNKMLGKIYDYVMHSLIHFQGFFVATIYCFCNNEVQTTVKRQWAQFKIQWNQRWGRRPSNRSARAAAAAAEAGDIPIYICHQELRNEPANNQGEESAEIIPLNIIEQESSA

[1] = biological target: Vascular endothelial growth factor receptor 1 (Homo sapiens, UniProt P17948); test: biochemical; format: cell-based, HUVEC; conditions: huvec; note: in other assays of this panel Not Active means under 50% inhibition at 10 µM
Vascular endothelial growth factor receptor 1, sequence (P17948 whole entry): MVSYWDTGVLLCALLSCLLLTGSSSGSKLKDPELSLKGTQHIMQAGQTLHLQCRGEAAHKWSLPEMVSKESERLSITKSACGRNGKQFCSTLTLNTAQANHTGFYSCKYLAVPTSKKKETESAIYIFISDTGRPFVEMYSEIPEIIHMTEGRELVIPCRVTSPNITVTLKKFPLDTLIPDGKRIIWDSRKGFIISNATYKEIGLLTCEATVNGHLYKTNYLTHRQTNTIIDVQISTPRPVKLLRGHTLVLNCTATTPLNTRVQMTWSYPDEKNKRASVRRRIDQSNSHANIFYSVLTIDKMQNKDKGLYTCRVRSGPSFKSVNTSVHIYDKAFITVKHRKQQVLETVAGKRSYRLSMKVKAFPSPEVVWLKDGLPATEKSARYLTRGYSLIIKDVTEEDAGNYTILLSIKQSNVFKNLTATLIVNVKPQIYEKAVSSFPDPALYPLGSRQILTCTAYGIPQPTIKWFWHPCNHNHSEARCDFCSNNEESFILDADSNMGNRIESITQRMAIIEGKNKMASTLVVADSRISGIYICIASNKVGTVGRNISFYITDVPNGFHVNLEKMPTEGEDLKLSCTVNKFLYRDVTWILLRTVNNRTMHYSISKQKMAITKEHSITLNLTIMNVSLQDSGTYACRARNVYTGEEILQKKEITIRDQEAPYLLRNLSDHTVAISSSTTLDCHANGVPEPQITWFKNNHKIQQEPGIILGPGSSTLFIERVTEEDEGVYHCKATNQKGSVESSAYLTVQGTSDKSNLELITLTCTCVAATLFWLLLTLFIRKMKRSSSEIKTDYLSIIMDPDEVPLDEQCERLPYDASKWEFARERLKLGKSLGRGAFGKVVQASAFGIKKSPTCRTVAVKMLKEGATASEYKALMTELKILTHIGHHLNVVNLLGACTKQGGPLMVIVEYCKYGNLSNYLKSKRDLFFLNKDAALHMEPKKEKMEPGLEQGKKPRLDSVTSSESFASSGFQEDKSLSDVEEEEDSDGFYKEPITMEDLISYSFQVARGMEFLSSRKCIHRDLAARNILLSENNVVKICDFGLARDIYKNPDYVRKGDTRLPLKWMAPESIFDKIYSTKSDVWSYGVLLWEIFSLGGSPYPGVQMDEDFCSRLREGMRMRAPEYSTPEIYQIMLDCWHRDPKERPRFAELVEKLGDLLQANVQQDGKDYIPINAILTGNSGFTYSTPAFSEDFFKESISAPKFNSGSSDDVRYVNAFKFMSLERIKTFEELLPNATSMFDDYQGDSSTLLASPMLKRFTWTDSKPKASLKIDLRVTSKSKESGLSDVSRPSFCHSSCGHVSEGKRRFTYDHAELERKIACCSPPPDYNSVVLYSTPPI

Carbonic anhydrase 2 = Carbonic anhydrase 2 (Homo sapiens, UniProt P00918); test: DRUGMATRIX: Carbonic Anhydrase II enzyme inhibition (substrate: 4-Nitrophenyl acetate (4-NPA)); format: tissue-based; conditions: erythrocyte; Not Active = under 50% inhibition at 10 µM
[2] = biological target: C-C chemokine receptor type 2 (Homo sapiens, UniProt P41597); format: cell membranes, Membrane; conditions: cho-k1; note: in other assays of this panel Not Active means under 50% inhibition at 10 µM
C-C chemokine receptor type 2, sequence (P41597 whole entry): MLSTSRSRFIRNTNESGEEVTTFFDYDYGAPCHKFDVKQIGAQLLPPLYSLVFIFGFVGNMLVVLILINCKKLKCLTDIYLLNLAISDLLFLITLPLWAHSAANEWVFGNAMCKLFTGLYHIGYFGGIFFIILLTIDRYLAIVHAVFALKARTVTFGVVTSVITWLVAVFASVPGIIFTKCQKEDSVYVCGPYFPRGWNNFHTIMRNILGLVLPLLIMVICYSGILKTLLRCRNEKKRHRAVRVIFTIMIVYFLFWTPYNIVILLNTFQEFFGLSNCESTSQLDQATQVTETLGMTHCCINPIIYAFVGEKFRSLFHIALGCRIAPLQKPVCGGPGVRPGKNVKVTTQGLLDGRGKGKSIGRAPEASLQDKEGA

[3] = DRUGMATRIX: Glutamate, NMDA, Phencyclidine radioligand binding (ligand: [3H] TCP); format: cell membranes, Rattus norvegicus, Wistar, Cerebral cortex, Membrane; conditions: Not Active = under 50% inhibition at 10 µM
Nitric oxide synthase 1 = Nitric oxide synthase 1 (Rattus norvegicus, UniProt P29476); format: tissue-based, Cerebellum; note: in other assays of this panel Not Active means under 50% inhibition at 10 µM
Nitric oxide synthase 1, sequence (P29476 whole entry): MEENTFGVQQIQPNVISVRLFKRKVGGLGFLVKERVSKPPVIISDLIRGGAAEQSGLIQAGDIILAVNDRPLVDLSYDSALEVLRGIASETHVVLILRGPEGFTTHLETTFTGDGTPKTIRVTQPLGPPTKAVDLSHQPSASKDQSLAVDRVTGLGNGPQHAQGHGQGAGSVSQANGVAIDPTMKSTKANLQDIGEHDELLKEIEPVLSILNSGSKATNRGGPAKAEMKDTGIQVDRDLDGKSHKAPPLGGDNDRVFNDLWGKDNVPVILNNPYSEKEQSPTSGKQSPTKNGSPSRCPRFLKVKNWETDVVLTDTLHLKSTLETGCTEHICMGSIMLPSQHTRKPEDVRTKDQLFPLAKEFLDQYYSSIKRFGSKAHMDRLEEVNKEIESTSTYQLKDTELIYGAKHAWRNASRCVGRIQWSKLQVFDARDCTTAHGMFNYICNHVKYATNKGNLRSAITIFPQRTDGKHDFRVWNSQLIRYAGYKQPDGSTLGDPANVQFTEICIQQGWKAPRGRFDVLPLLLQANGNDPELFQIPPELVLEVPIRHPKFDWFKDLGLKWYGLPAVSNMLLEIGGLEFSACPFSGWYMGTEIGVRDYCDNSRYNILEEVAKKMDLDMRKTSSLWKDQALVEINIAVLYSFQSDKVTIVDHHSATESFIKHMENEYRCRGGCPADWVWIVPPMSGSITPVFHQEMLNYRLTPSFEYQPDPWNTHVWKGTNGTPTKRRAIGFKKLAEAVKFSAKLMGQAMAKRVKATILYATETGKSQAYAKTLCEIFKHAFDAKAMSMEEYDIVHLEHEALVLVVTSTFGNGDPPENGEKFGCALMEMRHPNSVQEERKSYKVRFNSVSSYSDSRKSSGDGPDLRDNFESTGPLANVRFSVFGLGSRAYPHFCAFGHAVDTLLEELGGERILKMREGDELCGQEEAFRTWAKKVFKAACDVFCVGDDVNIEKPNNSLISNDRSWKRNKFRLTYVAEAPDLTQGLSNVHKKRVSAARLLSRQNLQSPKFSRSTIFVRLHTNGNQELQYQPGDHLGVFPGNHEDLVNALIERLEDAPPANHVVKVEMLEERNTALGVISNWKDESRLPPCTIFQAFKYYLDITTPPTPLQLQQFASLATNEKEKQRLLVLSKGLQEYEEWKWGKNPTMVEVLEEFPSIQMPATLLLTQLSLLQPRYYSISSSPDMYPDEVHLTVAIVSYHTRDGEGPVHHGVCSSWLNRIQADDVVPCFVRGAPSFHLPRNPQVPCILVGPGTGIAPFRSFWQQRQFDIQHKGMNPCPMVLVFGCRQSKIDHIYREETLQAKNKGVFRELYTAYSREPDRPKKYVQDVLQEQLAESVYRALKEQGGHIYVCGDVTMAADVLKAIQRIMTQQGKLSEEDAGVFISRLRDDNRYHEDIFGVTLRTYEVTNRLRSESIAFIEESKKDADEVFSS

Interstitial collagenase = biological target: T2, Interstitial collagenase (Homo sapiens, UniProt P03956); test: biochemical; format: tissue-based, Rheumatoid synovial fibroblasts
T2 sequence (P03956 whole entry): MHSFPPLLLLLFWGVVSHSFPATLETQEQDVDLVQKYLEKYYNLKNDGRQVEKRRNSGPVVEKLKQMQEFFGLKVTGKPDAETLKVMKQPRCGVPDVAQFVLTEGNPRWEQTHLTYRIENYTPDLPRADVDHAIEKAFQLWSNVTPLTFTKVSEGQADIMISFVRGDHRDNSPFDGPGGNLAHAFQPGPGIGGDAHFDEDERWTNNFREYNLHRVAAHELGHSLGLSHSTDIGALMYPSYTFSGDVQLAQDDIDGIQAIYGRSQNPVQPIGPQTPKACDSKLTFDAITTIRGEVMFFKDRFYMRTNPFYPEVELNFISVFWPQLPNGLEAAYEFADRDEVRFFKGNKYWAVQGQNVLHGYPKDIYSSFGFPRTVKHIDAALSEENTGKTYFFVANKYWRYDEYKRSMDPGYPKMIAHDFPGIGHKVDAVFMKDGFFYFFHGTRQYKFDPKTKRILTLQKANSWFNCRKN

COc1ccc(C(=O)N2CCCC2=O)cc1
Not Active: IC50 (Calcitonin receptor) | IC50 [1] | IC50 (Carbonic anhydrase 2) | IC50 [2] | IC50 [3] | Ki [3] | IC50 (Nitric oxide synthase 1) | IC50 (Interstitial collagenase)

NCCCC(O)(P(=O)(O)O)P(=O)(O)O [ALENDRONIC ACID]
Not Active: IC50 (Calcitonin receptor) | IC50 [1] | IC50 (Carbonic anhydrase 2) | IC50 [2] | IC50 [3] | Ki [3] | IC50 (Nitric oxide synthase 1) | IC50 (Interstitial collagenase)

Cn1c(=O)c2[nH]cnc2n(C)c1=O.Cn1c(=O)c2[nH]cnc2n(C)c1=O.NCCN [AMINOPHYLLINE]
Not Active: IC50 (Calcitonin receptor) | IC50 [1] | IC50 (Carbonic anhydrase 2) | IC50 [2] | IC50 [3] | Ki [3] | IC50 (Nitric oxide synthase 1) | IC50 (Interstitial collagenase)

CCC1(CCC(C)C)C(=O)NC(=O)NC1=O [AMOBARBITAL]
Not Active: IC50 (Calcitonin receptor) | IC50 [1] | IC50 (Carbonic anhydrase 2) | IC50 [2] | IC50 [3] | Ki [3] | IC50 (Nitric oxide synthase 1) | IC50 (Interstitial collagenase)

CC1(C)S[C@@H]2[C@H](NC(=O)[C@H](N)c3ccccc3)C(=O)N2[C@H]1C(=O)O [AMPICILLIN]
Not Active: IC50 (Calcitonin receptor) | IC50 [1] | IC50 (Carbonic anhydrase 2) | IC50 [2] | IC50 [3] | Ki [3] | IC50 (Nitric oxide synthase 1) | IC50 (Interstitial collagenase)

O=C1O[C@H]([C@@H](O)CO)C(O)=C1O [ASCORBIC ACID]
Not Active: IC50 (Calcitonin receptor) | IC50 [1] | IC50 (Carbonic anhydrase 2) | IC50 [2] | IC50 [3] | Ki [3] | IC50 (Nitric oxide synthase 1) | IC50 (Interstitial collagenase)

CN1[C@@H]2CC[C@H]1C[C@@H](OC(=O)C(CO)c1ccccc1)C2 (some centres undefined) [ATROPINE]
Not Active: IC50 (Calcitonin receptor) | IC50 [1] | IC50 (Carbonic anhydrase 2) | IC50 [2] | IC50 [3] | Ki [3] | IC50 (Nitric oxide synthase 1) | IC50 (Interstitial collagenase)

Brc1c(NC2=NCCN2)ccc2nccnc12 [BRIMONIDINE]
Not Active: IC50 (Calcitonin receptor) | IC50 [1] | IC50 (Carbonic anhydrase 2) | IC50 [2] | IC50 [3] | Ki [3] | IC50 (Nitric oxide synthase 1) | IC50 (Interstitial collagenase)

CN(C)[C@@H]1C(O)=C(C(N)=O)C(=O)[C@@]2(O)C(O)=C3C(=O)c4c(O)ccc(Cl)c4[C@@](C)(O)[C@H]3C[C@@H]12 [CHLORTETRACYCLINE]
Not Active: IC50 (Calcitonin receptor) | IC50 [1] | IC50 (Carbonic anhydrase 2) | IC50 [2] | IC50 [3] | Ki [3] | IC50 (Nitric oxide synthase 1) | IC50 (Interstitial collagenase)

C[C@@H]1C[C@H]2[C@@H]3CCC4=CC(=O)C=C[C@]4(C)[C@@]3(F)[C@@H](O)C[C@]2(C)[C@H]1C(=O)CO [DESOXIMETASONE]
Not Active: IC50 (Calcitonin receptor) | IC50 [1] | IC50 (Carbonic anhydrase 2) | IC50 [2] | IC50 [3] | Ki [3] | IC50 (Nitric oxide synthase 1) | IC50 (Interstitial collagenase)

C[C@@H]1C[C@H]2[C@@H]3CCC4=CC(=O)C=C[C@]4(C)[C@@]3(F)[C@@H](O)C[C@]2(C)[C@@]1(O)C(=O)CO [DEXAMETHASONE]
Not Active: IC50 (Calcitonin receptor) | IC50 [1] | IC50 (Carbonic anhydrase 2) | IC50 [2] | IC50 [3] | Ki [3] | IC50 (Nitric oxide synthase 1) | IC50 (Interstitial collagenase)

CN(C)CC[C@@H](c1ccc(Cl)cc1)c1ccccn1 [DEXCHLORPHENIRAMINE]
Not Active: IC50 (Calcitonin receptor) | IC50 [1] | IC50 (Carbonic anhydrase 2) | IC50 [2] | IC50 [3] | Ki [3] | IC50 (Nitric oxide synthase 1) | IC50 (Interstitial collagenase)

C[C@H]1O[C@@H](n2cc(F)c(=O)[nH]c2=O)[C@H](O)[C@@H]1O [DOXIFLURIDINE]
Not Active: IC50 (Calcitonin receptor) | IC50 [1] | IC50 (Carbonic anhydrase 2) | IC50 [2] | IC50 [3] | Ki [3] | IC50 (Nitric oxide synthase 1) | IC50 (Interstitial collagenase)
